In patent US10307412B2, “Quinoline derivative against non-small cell lung cancer” (CHIA TAI TIANQING PHARMACEUTICAL GROUP CO., LTD., priority 2014, dated 2019):
Structures can show the parent of a compound that is named as a salt.

How the values were obtained:
Type in all cases: in vivo, human
[1] = tested on: non-small cell lung cancer squamous cell carcinoma; test: Case report, non-small cell lung cancer squamous cell carcinoma (Example 8)
Procedure: EML4-ALK fusion gene had no mutation, EGFR gene had no mutation by gene detection.
From Mar. 26, 2013 to Jun. 5, 2013, the patient was treated with cisplatin and gemcitabine chemotherapy for 4 cycles, and the best efficacy was SD. After the end of the chemotherapy, they were treated with the local radiotherapy of the lung for 1 cycle, during which the adverse reactions was light. From Sep. 9, 2013 to Oct. 6, 2013, the patient was treated with cisplatin and gemcitabine chemotherapy for 2 cycles. December 2013, disease was found progression by review of CT. From Mar. 24, 2014, the patient was treated with docetaxel chemotherapy for 1 cycle. […] On Dec. […] Double lungs had multiple pulmonary bullae, which changed little than before; 3. Double lungs had inflammation, the scope of which was smaller than before; 4. Left clavicle, mediastinal and right hilar had multiple lymph nodes, which were slightly larger than before. From Jan. 7, 2015 to Jan. […] On Mar. […] On Mar. 6, 2015, the patient was treated with oral Tiggio treatment. […] On Jun.
From Jun. 4, 2015, the patient received dihydrochloride of compound I capsule treatment that one cycle plan was 12 mg dose once, q.d., and continuous medication for 2 weeks, and then suspended medication for 1 week. On Jun.

[2] = tested on: left upper lobe lung adenocarcinoma (T4N3M1a, stage IV); test: Case report, stage IV lung adenocarcinoma (Example 6); settings: for sum of the diameter of two measurable target lesions: baseline 58 mm
Procedure: A retired person, smoking for 30 years (20 cigarettes/day), underwent thyroid adenoma resection 10 years ago. […] From Aug. 1, 2013 to Sep. […] From Dec. 26, 2013 to Jan. […] On Jan. […] On Feb.
From Feb. 28, 2014, the capsule of dihydrochloride of compound I was taken orally at 12 mg once daily with repeated treatment cycles (treatment given for consecutive two weeks followed by one week of rest is one treatment cycle).

[3] = tested on: patients with non-small cell lung cancer; test: Randomized, double-blind, placebo-controlled trial in non-small cell lung cancer patients (Example 3); settings: for progression-free survival (PFS, month) Mean / progression-free survival (PFS, month) P25 / progression-free survival (PFS, month) P50 / progression-free survival (PFS, month) P75: 12 mg once daily, two weeks on, one week rest
Excerpt: (§1) In this paper, progression-free survival P25 refers to the time that 75% of the patients who participated in the disease had no progress in disease; Progressive survival P50 refers to the time that 50% of the patients who participated in the disease had no progress in disease; Progression-free survival P75 refers to the time that 25% of the patients who participated in the disease had no progress in disease; the progression-free survival was the mean value of the progression-free survival of the patient who participated in the results of statistics.
Randomized, double-blind, placebo-controlled trials were performed in patients with measurable lesions which were pathologically diagnosedas non-small cell lung cancer, who had received second-line or higher-line therapy, or those who were intolerable to aforementioned treatment, and who had been treated with other cytotoxic drugs, radiotherapy or surgery for more than four weeks. In this study, efficacy of the capsules of dihydrochloride of compound I was initially evaluated against placebo in the treatment of patients with non-small cell lung cancer. The primary outcome of the evaluation was progression-free survival (PFS). 117 patients with non-small cell lung cancer enrolled in this study, whose age was between 18-70. Among them, 57 patients were randomized into placebo group and 60 patients randomized into dihydrochloride of compound I group.
(§2) The above-mentioned eligible non-small cell lung cancer patients were treated with dihydrochloride of compound I/placebo for clinical trials. They were administered 12 mg/0 mg of compound I/placebo individually once daily for consecutive two weeks followed by one-week rest from administration, namely the period of a cycle regimen was three weeks (21 days), those who were ineligible for continuous therapy or whose disease were progressive disease (PD) according to the reassessment were excluded from the medication.
(§3) Results: A total of 117 patients with non-small cell lung cancer were enrolled in the study, including 57 patients randomized into placebo group and 60 patients randomized into dihydrochloride of compound I group. 43 patients in placebo group and 30 patients in dihydrochloride of compound I group were involved in data statistics, the remaining patients who dropped out or excluded from the study or those were still in follow-up were not included in the statistics.

[4] = tested on: patients with lung adenocarcinoma; test: Randomized, double-blind, placebo-controlled trial in lung adenocarcinoma patients (Example 4)
Excerpt: as §1
Randomized, double-blind, placebo-controlled trials were performed in patients with measurable lesions which were pathologically diagnosedas lung adenocarcinoma, who had received second-line or higher-line therapy, or those who were intolerable to the aforementioned treatment, and who had been treated with other cytotoxic drugs, radiotherapy or surgery for more than four weeks. In this study, efficacy of the capsules of dihydrochloride of compound I was initially evaluated against placebo in the treatment of patients with lung adenocarcinoma. The primary outcome of the evaluation was progression-free survival (PFS). 104 patients with lung adenocarcinoma enrolled in this study, whose age was between 18-70. Among them, 50 patients were randomized into placebo group and 54 patients randomized into dihydrochloride of compound I group.
as §2, with “eligible” for “eligible non-small cell”, “adenocarcinoma” for “cancer”
as §3, with “104” for “117”, “with” for “with non-small cell”, “adenocarcinoma” for “cancer”, “50” for “57”, “54” for “60”, “37” for “43”

[5] = tested on: right lower lung adenocarcinoma (T4N2M1b, stage IV); test: Case report, stage IV lung adenocarcinoma (Example 5); settings: for sum of the longest diameter of the two measurable lesions: baseline 45.7 mm
Procedure: 3, 2013, the capsule of dihydrochloride of compound I was taken orally at 12 mg once daily with repeated treatment cycles (treatment given for consecutive two weeks followed by one week of rest is one treatment cycle). Treatment toxicities were assessed at 4-week follow-up, and the number of blood cells and blood chemistry were analyzed every two or three weeks, treatment response was assessed based on CT scan as well.

[6] = tested on: non-small cell lung cancer; test: Case report, non-small cell lung cancer, EGFR gene no mutation (Example 7)
Excerpt: From Jun. […] From Oct. […] On Jan. […] From Jan. […] On Jul.

[7] = lung adenocarcinoma, 12 mg once daily, two weeks on, one week rest
[8] = after ten treatment cycles (210 days)
[9] = after three-week administration

`CC(=O)O[C@@]12CO[C@@H]1C[C@H](O)[C@@]1(C)C(=O)[C@H](O)C3=C(C)[C@@H](OC(=O)[C@H](O)[C@@H](NC(=O)OC(C)(C)C)c4ccccc4)C[C@@](O)([C@@H](OC(=O)c4ccccc4)[C@H]21)C3(C)C` [docetaxel, reference compound] was tested, and the “adverse reactions after prior chemotherapy (medical history)” value ([1]; in vivo) was “bone marrow suppression, oral infection, pneumonia appeared”.

With “gemcitabine/cisplatin [reference compound]” the “outcome of prior therapy (medical history)” value ([2]; one treatment cycle each) was “unsatisfactory”.

In the case of `COc1cc2c(Oc3ccc4[nH]c(C)cc4c3F)ccnc2cc1OCC1(N)CC1` [dihydrochloride of compound I, 1-[[[4-(4-fluoro-2-methyl-1H-indol-5-yl)oxy-6-methoxyquinolin-7-yl]oxy]methyl]cyclopropylamine dihydrochloride], the “progression-free survival (PFS, month) Mean” value ([3]; age > 60) is reported as 5.84 month, the “progression-free survival (PFS, month) P25” value ([3]; age > 60) is reported as 2.83 month and the “progression-free survival (PFS, month) P50” value ([3]; age > 60) is reported as 6.40 month. The “progression-free survival (PFS, month) P75” value ([3]; age > 60) was 8.30 month, the “progression-free survival (PFS, month) Mean” value ([3]; age ≤ 60) was 4.48 month and the “progression-free survival (PFS, month) P25” value ([3]; age ≤ 60) was 2.77 month. For the same compound, the “progression-free survival (PFS, month) P50” value ([3]; age ≤ 60) was 4.30 month, the “progression-free survival (PFS, month) P75” value ([3]; age ≤ 60) was 6.17 month and the “effect on progression-free survival versus placebo” value ([3]; patients with non-small cell lung cancer) was “significantly prolong progression-free survival”. For the same compound, the “progression-free survival (PFS, month) Mean” value [4, 7] was 4.77 month, the “progression-free survival (PFS, month) P25” value [4, 7] was 2.77 month and the “progression-free survival (PFS, month) P50” value [4, 7] was 4.33 month. The “progression-free survival (PFS, month) P75” value [4, 7] was 6.87 month, the “effect on progression-free survival versus placebo” value ([4]; patients with lung adenocarcinoma) was “significantly prolong progression-free survival” and the tolerance ([5]; 12 mg once daily orally) was “well tolerated”. The “reduction of sum of the longest diameter” value [5, 8] was 43.1%, the “sum of the longest diameter of the two measurable lesions” value [5, 8] was 26 mm and the “reduction of sum of the longest diameter” value ([5]; after treatment for 6 weeks) was 31.22%. For the same compound, the “sum of the longest diameter of the two measurable lesions” value ([5]; after treatment for 6 weeks, 12 mg once daily orally) was 31.43 mm, the “blood routine examinations including the number of blood cells” value ([5]; during treatment) was “not significantly altered” and the tolerance ([2]; 12 mg once daily orally) was “generally well tolerated”. For the same compound, the “lesion in anterior segment of left upper lobe lung, diameter” value (“lesion … of left upper lobe lung, diameter” for short) ([2]; after 15-week administration) was 10 mm, the “lesion in mediastinal lymph node, diameter” value ([2]; after 15-week administration) was 15 mm and the “reduction of sum of target lesions” value ([2]; after 15-week administration) was 56.9%. For the same compound, the “sum of the diameter of two measurable target lesions” value ([2]; after 15-week administration) was 25 mm, the “lesion … of left upper lobe lung, diameter” value ([2]; after nine-week administration) was 10 mm and the “lesion in mediastinal lymph node, diameter” value ([2]; after nine-week administration) was 16 mm. For the same compound, the “reduction of sum of target lesions” value ([2]; after nine-week administration) was 55.2%, the “sum of the diameter of two measurable target lesions” value ([2]; after nine-week administration) was 26 mm and the “reduction of sum of target lesions” value [2, 9] was 37.9%. For the same compound, the “lesion in mediastinal lymph node, diameter” value ([2]; after three-week administration, baseline 21 mm) was 18 mm, the “lesion … of left upper lobe lung, diameter” value ([2]; after three-week administration, baseline 37 mm) was 18 mm and the “sum of the diameter of two measurable target lesions” value [2, 9] was 36 mm. The blood changes ([2]; during treatment) was “not significant”, the heart toxicity ([2]; during treatment) was “no heart toxicity related to the drug” and the “progression of non-target lesions and new lesions” value ([2]; during treatment) was “not observed”. For the same compound, the “response and clinical performance” value ([2]; given for 279 days, 14th treatment cycle) was “sustained response against tumor and good clinical performance”, the “lesion … of left upper lobe lung, diameter” value ([2]; six weeks administration) was 14 mm and the “lesion in mediastinal lymph node, diameter” value ([2]; six weeks administration) was 15 mm. The “reduction of sum of target lesions” value ([2]; six weeks administration) was 50%, the “sum of the diameter of two measurable target lesions” value ([2]; six weeks administration) was 29 mm and the “lesion … of left upper lobe lung, diameter” value ([2]; twelve weeks administration) was 10 mm. For the same compound, the “lesion in mediastinal lymph node, diameter” value ([2]; twelve weeks administration) was 16 mm, the “reduction of sum of target lesions” value ([2]; twelve weeks administration) was 55.2% and the “sum of the diameter of two measurable target lesions” value ([2]; twelve weeks administration) was 26 mm. The “left temporal lobe nodules, head enhancement CT” value ([6]; Aug. 20, 2015) was “slightly smaller than baseline”, the “tolerability of adverse reactions” value ([6]; until application date) was “could tolerate adverse reactions” and the target lesion sum ([1]; Jul. 15, 2015) was 63 mm. The target lesion sum ([1]; Oct. 16, 2015) was 56 mm, the target lesion sum ([1]; Sep. 8, 2015) was 57 mm and the “reduction of total target lesions versus baseline” value ([1]; after 1 cycle (Jun. 25, 2015)) was 10 mm. The total target lesions ([1]; after 1 cycle (Jun. 25, 2015)) was 66 mm and the “tolerability of adverse reactions” value ([1]; until application date) was “could tolerate adverse reactions”.
